“And” between values parts separate entries of the source, which are not always exact repeats. Identical values can stand only once. Some results are limits rather than exact numbers.

The experiment relates to transformation of CPP1 to CPP2 in pooled human serum. In words: In vitro serum calcification propensity (T50) screening assay. Details: key to T50: T50 in minutes (time to 50% CPP phase transition). Conditions: for activity/unit mass: mean c350 x mw (Na salt); for concentration upon which a T50 of 350 min is reached (c350), mean: mean of n experiments; for concentration upon which a T50 of 350 min is reached (c350), single experiment: one value per experiment (lab journal reference E05-E40); for Concentration at T50 = 350 min mean ± s.d. (n) (c350): pooled human serum, 10 mM calcium, 6 mM phosphate, 37 °C. The format is biochemical. As for the experimental part:
The compounds were ranked for calcification inhibition activity using a nanoparticle-based test, developed for risk stratification, which measures the propensity for calcification in patient serum. […] The time, after which 50% of CPP phase transition occurred (T50), was assessed by time-resolved spectrophotometry at 550 nm (Supplementary Fig. 1a).
The screening assay was performed as described previously. In brief, pooled human serum (H4522, Sigma-Aldrich) stored at −20 °C was thawed at 37 °C, centrifuged (10,000 × g, and 4 °C, 30 min) (5427R, Eppendorf, Switzerland), and sterile filtered (0.22 μm filter, Millipore, Merck KGaA) to remove potential cryoprecipitates (cleared human serum). The calcium solution was 40 mM CaCl2 (102382, Merck KGaA) in HBS, pH 7.4 (RT) (100 mM HEPES (H3375, Sigma-Aldrich) and 140 mM NaCl (1734712, Fisher Scientific, Hampton, NH, USA)). […] All salt solutions and buffers were double sterile filtered (0.22 µm) and pre-warmed to 37 °C prior to use. […] The plate was sealed with an adhesive film and the absorption at 550 nm was measured every 3 min with 1 min in-between shaking for a total of 300 cycles at 37 °C using the infinite M200 microplate reader (Tecan, Männedorf, Switzerland). An A550 vs. time graph was generated and T50 (min) (time at half-maximum transition from CPP1 to CPP2) values were derived by sigmoidal curve fit using Prism 8 (nonlinear regression in the log(agonist) vs. response–variable slope (four parameter mode) using the robust fit fitting method, GraphPad Software, San Diego, CA, USA). Activities between compounds were compared by generating a T50 (min) vs. concentration (µM) graph, calculating nonlinear regression and deriving the concentration required to delay T50 to 350 min (c350) using a standard equation for the dose–response curve, Eq. (1), whereby x = [compound], y = time (min), bottom = baseline response, top = maximum response, T50 = [drug] that leads to half-maximum response, and the hill slope is a factor that describes the steepness of the curve.1 y= bottom+top - bottom/1+T50/x^hillslope.

Where [1] appears, read: concentration 1 μM, one value per experiment.
Where [2] appears, read: concentration 3 μM, one value per experiment.
Setting [3] is: concentration 5 μM, one value per experiment.
The mark [4] stands for this setting: concentration 10 μM, one value per experiment.
[5] abbreviates: concentration 15 μM, one value per experiment.
The mark [6] stands for this setting: concentration 30 μM, one value per experiment.
The mark [7] stands for this setting: concentration 50 μM, one value per experiment.
[8] abbreviates: concentration 100 μM, one value per experiment.

As for `COCCOCCOCCOCCOCCOCCOCCO[C@H]1[C@H](OP(=O)(O)O)[C@H](OCCOCCOCCOCCOCCOCCOCCOC)[C@H](OP(=O)(O)O)[C@@H](OCCOCCOCCOCCOCCOCCOCCOC)[C@@H]1OP(=O)(O)O` [(OEG7)3-IP3, 2,4,6-Tri-O-(methoxy-heptaethyleneglycol)-myo-inositol-1,3,5-tris(phosphate)], the activity/unit mass stood at 14.33 mg/L; the “concentration upon which a T50 of 350 min is reached (c350), mean” value (from here on “concentration upon which a T50 … mean”) is 9.4 µM; the “concentration upon which a T50 of 350 min is reached (c350), single experiment” value was 8.7 µM and 9.8 µM; the “Concentration at T50 = 350 min mean ± s.d. (n) (c350)” value (shortened to “Concentration … (n) (c350)”) was 9.4 ± 0.6 (3) µM and 14.3 ± 1.0 (3) mg/L. In addition, under setting [1], the T50 was 258.7 and 237.667 and 205.767. For the same molecule, the T50 under setting [2] is 289.967 and 270.1 and 251.367. The T50 under setting [3] is 303.667 and 291.2 and 260.633. Under setting [4], the T50 is 364.467 and 352.533 and 355.7.
For the molecule `CC(O)(P(=O)(O)O)P(=O)(O)O` [Etidronate, etidronate], the activity/unit mass worked out at 2.61 mg/L; the “concentration upon which a T50 … mean” value was determined as 10.5 µM; the “concentration upon which a T50 of 350 min is reached (c350), single experiment” value is 9.9 µM and 11.5 µM and 11.3 µM and 9.1 µM; the “Concentration … (n) (c350)” value is 10.5 ± 1.1 (4) µM and 2.6 ± 0.3 (4) mg/L. The T50 under setting [1] was 222.567 and 215.333 and 215.167. Besides, the T50 under setting [2] is 248.167 and 245.7 and 237.9. For the same molecule, the T50 under setting [3] was 290 and 263.6 and 286.233. Also, under setting [4], the T50 is 321.233 and 361.6. Besides, the T50 under setting [5] was 433.033 and 458.567. Besides, the T50 under setting [6] worked out at 729.533.
As for `O=P(O)(O)O[C@@H]1[C@@H](O)[C@@H](OP(=O)(O)O)[C@@H](O)[C@H](O)[C@H]1O` [IP2, myo-Inositol-2,4-diphosphate], the “concentration upon which a T50 … mean” value was determined as 35.0 µM; the “concentration upon which a T50 of 350 min is reached (c350), single experiment” value is 27.3 µM and 35.1 µM and 42.7 µM; the “Concentration … (n) (c350)” value was 35.0 ± 7.7 (3) µM and 15.0 ± 3.3 (3) mg/L. In addition, the T50 under setting [1] was 228.333 and 230.233 and 205.967. The T50 under setting [2] was 236.4 and 226.467 and 221.933. Besides, the T50 under setting [4] is 274.433 and 257.367 and 241.267. Besides, under setting [6], the T50 was 358.8 and 323.1 and 304.6. Further, the T50 under setting [7] is 407.867 and 425.367 and 375.7.
For `O=P(O)(O)O[C@@H]1[C@H](O)[C@H](O)[C@@H](OP(=O)(O)O)[C@H](OP(=O)(O)O)[C@H]1O` [IP3, myo-Inositol-1,4,5-triphosphate], the “concentration upon which a T50 … mean” value was determined as 18.6 µM; the “concentration upon which a T50 of 350 min is reached (c350), single experiment” value is 15.5 µM and 18.6 µM and 21.6 µM; the “Concentration … (n) (c350)” value was 18.6 ± 3.1 (3) µM and 10.2 ± 1.7 (3) mg/L. Also, under setting [1], the T50 is 226 and 227.733 and 222.3. Besides, the T50 under setting [2] was 236 and 220.433 and 234.133. Further, under setting [4], the T50 is 306.433 and 280.567 and 269.467. In addition, the T50 under setting [6] was 515.9 and 500.567 and 450.3. Moreover, the T50 under setting [7] was 814.5 and 889.4 and 828.767.
For the molecule `O=P(O)(O)O[C@@H]1[C@@H](O)[C@H](OP(=O)(O)O)[C@@H](OP(=O)(O)O)[C@H](O)[C@@H]1OP(=O)(O)O` [IP4, myo-Inositol-2,3,5,6-tetrakisphosphate], the “concentration upon which a T50 … mean” value amounted to 19.5 µM; the “concentration upon which a T50 of 350 min is reached (c350), single experiment” value is 20.1 µM and 19.8 µM and 18.8 µM; the “Concentration … (n) (c350)” value was 19.5 ± 0.7 (3) µM and 13.2 ± 0.5 (3) mg/L. Besides, the T50 under setting [1] is 211 and 218.833 and 216.333. Besides, the T50 under setting [2] was 225 and 236 and 231.367. The T50 under setting [4] is 262.033 and 281.067 and 280.633. Under setting [6], the T50 was 466.533 and 430.4 and 481.633. Moreover, the T50 under setting [7] is 774.233 and 614.5 and 810.35.
Regarding `O=P(O)(O)O[C@@H]1[C@H](OP(=O)(O)O)[C@H](OP(=O)(O)O)[C@@H](O)[C@H](OP(=O)(O)O)[C@H]1OP(=O)(O)O` [IP5, myo-Inositol-1,2,3,5,6-pentakisphosphate], the “concentration upon which a T50 … mean” value amounted to 13.2 µM; the “concentration upon which a T50 of 350 min is reached (c350), single experiment” value is 14.6 µM and 12.1 µM and 12.9 µM; the “Concentration … (n) (c350)” value was 13.2 ± 1.3 (3) µM and 10.5 ± 1.0 (3) mg/L. In addition, the T50 under setting [1] is 220.367 and 229.167 and 217.95. Moreover, the T50 under setting [2] is 240.433 and 226.567. Also, the T50 under setting [4] is 286.067 and 304.933 and 322.1. Further, the T50 under setting [5] was 373.933. Moreover, under setting [6], the T50 is 702.867 and 723.533 and 709.1.
`OP(O)(=S)O[C@H]1[C@H](OP(O)(O)=S)[C@@H](OP(O)(O)=S)[C@H](OP(O)(O)=S)[C@@H](OP(O)(O)=S)[C@H]1OP(O)(O)=S` [IT6, myo-Inositol hexathiophosphate]: the activity/unit mass came out at 12.79 mg/L; the “concentration upon which a T50 … mean” value is 14.4 µM; the “concentration upon which a T50 of 350 min is reached (c350), single experiment” value is 14.7 µM and 14.2 µM and 14.3 µM; the “Concentration … (n) (c350)” value is recorded as 14.4 ± 0.3 (3) µM. For the same molecule, the T50 under setting [1] was 209.1 and 228.433 and 226.433. The T50 under setting [2] was 226.567 and 251.033 and 247.133. Moreover, the T50 under setting [4] was 291.533 and 299.233 and 300.133. For the same molecule, the T50 under setting [6] is 577.433 and 598.2 and 571.6.
In the case of `O=C([O-])CC(O)(CC(=O)[O-])C(=O)[O-].O=C([O-])CC(O)(CC(=O)[O-])C(=O)[O-].[Mg+2].[Mg+2].[Mg+2]` [Mg citrat], the activity/unit mass came out at 21.44 mg/L and the “concentration upon which a T50 … mean” value was > 100 µM.
Turning to `O=P(O)(O)OP(=O)(O)O` [PPi, sodium pyrophosphate], the “concentration upon which a T50 … mean” value came out at 27.4 µM; the “concentration upon which a T50 of 350 min is reached (c350), single experiment” value was 26.6 µM and 25 µM and 30.5 µM; the “Concentration … (n) (c350)” value was 27.4 ± 2.8 (3) µM and 7.3 ± 0.8 (3) mg/L. The T50 under setting [1] is on record as 217.433. Besides, the T50 under setting [2] was 221.633 and 215.733 and 209.467. The T50 under setting [4] was 255.8 and 265.133 and 242.367. Moreover, under setting [5], the T50 was 287.067 and 306.267 and 274.667. Moreover, under setting [6], the T50 was 364.3 and 363.867 and 345.167. Also, the T50 under setting [7] was 483 and 451.167.
On to `O[C@H]1[C@H](O)[C@@H](O)[C@H](O)[C@@H](O)[C@H]1O` [myo-Inositol, myo-inositol], for which the activity/unit mass worked out at 18.02 mg/L; the “concentration upon which a T50 … mean” value is > 100 µM; the “Concentration … (n) (c350)” value was >100 (4) µM and >18.0 (4) mg/L. In addition, the T50 (1 µM, individual experiments, Fig. 2a) is 207.8 min and 255.6 min and 248.233 min and 290.55 min. For the same molecule, the T50 (3 µM, individual experiments, Fig. 2a) is 211.367 min and 251.867 min and 315.75 min. For the setting “10 µM, individual experiments, Fig. 2a”, the T50 was 222.4 min and 274.533 min and 249.233 min and 297.6 min. Further, the T50 (30 µM, individual experiments, Fig. 2a) was 215.55 min and 286.233 min and 247.167 min and 309.65 min. For the setting “50 µM, individual experiments, Fig. 2a”, the T50 is 213.1 min and 307.8 min. Moreover, for the setting “100 µM, individual experiments, Fig. 2a”, the T50 was 291.467 min and 250.833 min. Further, the T50 under setting [1] was 207.8 and 255.6 and 248.233 and 290.55. Moreover, the T50 under setting [2] is 211.367 and 251.867 and 315.75. For the same molecule, the T50 under setting [4] is 222.4 and 274.533 and 249.233 and 297.6. Moreover, under setting [6], the T50 is 215.55 and 286.233 and 247.167 and 309.65. Besides, the T50 under setting [7] was 213.1 and 307.8. Further, the T50 under setting [8] is 291.467 and 250.833.
Take magnesium citrate: the “Concentration … (n) (c350)” value is >100 (3) µM and >21.4 (3) mg/L. In addition, the T50 under setting [1] was 196.233 and 242.1 and 288.4. Further, the T50 under setting [2] is 190.533 and 253.267 and 289.2. Further, the T50 under setting [4] is 197.533 and 253.867 and 304.8. Under setting [6], the T50 was 198.933 and 273.433 and 307.3. For the same molecule, the T50 under setting [8] was 228.767 and 304.4 and 351.8.

For the origin of these results see PMC7002685, “Inhibition of vascular calcification by inositol phosphates derivatized with ethylene glycol oligomers” (Nature Communications, 2020).
